# Measurements reported in patent US20250352520A1, “USE OF DEXPRAMIPEXOLE FOR THE TREATMENT OF EOSINOPHILIC COPD” (Areteia Therapeutics, Inc., priority 2024, published 2025).
# Details: Week 12; >=50% AEC reduction at Week 16
structure (smiles),measurement,value
"CCCN[C@@H]1CCc2nc(N)sc2C1 [Dexpramipexole, (6R)-2-amino-4,5,6,7-tetrahydro-6-(propylamino)benzothiazole]","Pre-BD FEF25-75 % change from baseline, Max",14%
same,"Pre-BD FEF25-75 % change from baseline, Mean ± SD",6.3 ± 8.24%
same,"Pre-BD FEF25-75 % change from baseline, Median",6.8%
same,"Pre-BD FEF25-75 % change from baseline, Min",−2%
same,"Pre-BD FEF25-75 % change from baseline, Q1",−2%
same,"Pre-BD FEF25-75 % change from baseline, Q3",14%
same,"Pre-BD FEF25-75 Observed, Max",900 mL/s
same,"Pre-BD FEF25-75 Observed, Mean ± SD",640.0 ± 351.57 mL/s
same,"Pre-BD FEF25-75 Observed, Median",780.0 mL/s
same,"Pre-BD FEF25-75 Observed, Min",240 mL/s
same,"Pre-BD FEF25-75 Observed, Q1",240 mL/s
same,"Pre-BD FEF25-75 Observed, Q3",900 mL/s
same,"Pre-BD FEF25-75 change from baseline, Max",50 mL/s
same,"Pre-BD FEF25-75 change from baseline, Mean ± SD",20.0 ± 36.06 mL/s
same,"Pre-BD FEF25-75 change from baseline, Median",30.0 mL/s
same,"Pre-BD FEF25-75 change from baseline, Min",-20 mL/s
same,"Pre-BD FEF25-75 change from baseline, Q1",-20 mL/s
same,"Pre-BD FEF25-75 change from baseline, Q3",50 mL/s
same,"Pre-BD FEV1 % change from baseline, Max",37%
same,"Pre-BD FEV1 % change from baseline, Mean ± SD",25.3 ± 19.37%
same,"Pre-BD FEV1 % change from baseline, Median",36. %
same,"Pre-BD FEV1 % change from baseline, Min",3%
same,"Pre-BD FEV1 % change from baseline, Q1",3%
same,"Pre-BD FEV1 % change from baseline, Q3",37%
same,"Pre-BD FEV1 Observed, Max",1780 mL
same,"Pre-BD FEV1 Observed, Mean ± SD",1496.7 ± 448.14 mL
same,"Pre-BD FEV1 Observed, Median",1730.0 mL
same,"Pre-BD FEV1 Observed, Min",980 mL
same,"Pre-BD FEV1 Observed, Q1",980 mL
same,"Pre-BD FEV1 Observed, Q3",1780 mL
same,"Pre-BD FEV1 change from baseline, Max",480 mL
same,"Pre-BD FEV1 change from baseline, Mean ± SD",263.3 ± 215.02 mL
same,"Pre-BD FEV1 change from baseline, Median",260.0 mL
same,"Pre-BD FEV1 change from baseline, Min",50 mL
same,"Pre-BD FEV1 change from baseline, Q1",50 mL
same,"Pre-BD FEV1 change from baseline, Q3",480 mL
same,"Pre-BD FVC % change from baseline, Max",18%
same,"Pre-BD FVC % change from baseline, Mean ± SD",12.0 ± 5.17%
same,"Pre-BD FVC % change from baseline, Median",11.1%
same,"Pre-BD FVC % change from baseline, Min",7%
same,"Pre-BD FVC % change from baseline, Q1",7%
same,"Pre-BD FVC % change from baseline, Q3",18%
same,"Pre-BD FVC Observed, Max",2800 mL
same,"Pre-BD FVC Observed, Mean ± SD",2690.0 ± 181.93 mL
same,"Pre-BD FVC Observed, Median",2790.0 mL
same,"Pre-BD FVC Observed, Min",2480 mL
same,"Pre-BD FVC Observed, Q1",2480 mL
same,"Pre-BD FVC Observed, Q3",2800 mL
same,"Pre-BD FVC change from baseline, Max",370 mL
same,"Pre-BD FVC change from baseline, Mean ± SD",280.0 ± 90.00 mL
same,"Pre-BD FVC change from baseline, Median",280.0 mL
same,"Pre-BD FVC change from baseline, Min",190 mL
same,"Pre-BD FVC change from baseline, Q1",190 mL
same,"Pre-BD FVC change from baseline, Q3",370 mL
same,"Pre-BD Peak Flow % change from baseline, Max",82%
same,"Pre-BD Peak Flow % change from baseline, Mean ± SD",31.8 ± 45.54%
same,"Pre-BD Peak Flow % change from baseline, Median",21.9%
same,"Pre-BD Peak Flow % change from baseline, Min",−8%
same,"Pre-BD Peak Flow % change from baseline, Q1",−8%
same,"Pre-BD Peak Flow % change from baseline, Q3",82%
same,"Pre-BD Peak Flow Observed, Max",285 L/min
same,"Pre-BD Peak Flow Observed, Mean ± SD",208.7 ± 66.53 L/min
same,"Pre-BD Peak Flow Observed, Median",178.0 L/min
same,"Pre-BD Peak Flow Observed, Min",163 L/min
same,"Pre-BD Peak Flow Observed, Q1",163 L/min
same,"Pre-BD Peak Flow Observed, Q3",285 L/min
same,"Pre-BD Peak Flow change from baseline, Max",128 L/min
same,"Pre-BD Peak Flow change from baseline, Mean ± SD",48.7 ± 72.45 L/min
same,"Pre-BD Peak Flow change from baseline, Median",32.0 L/min
same,"Pre-BD Peak Flow change from baseline, Min",-14 L/min
same,"Pre-BD Peak Flow change from baseline, Q1",-14 L/min
same,"Pre-BD Peak Flow change from baseline, Q3",128 L/min
